In US8697662B2, “Methods for treating Kaposi sarcoma” (PTC Therapeutics, Inc., priority 2009, dated 2014):

What was measured:
[1] = tested on: soluble VEGF121 and VEGF165 isoforms; test: ELISA of soluble VEGF production in multiple human tumor cell lines (EC50); assay type: cell-based; settings: 18 human tumor cell lines
Procedure: Study Design. […] In these experiments, cultures were established under normoxic conditions (21% oxygen). […] Cells requiring induction of VEGF production were incubated under hypoxic conditions (1% oxygen). At the completion of treatment, the conditioned media were collected and assayed by ELISA (as described in Section 9.1.1.1) for soluble VEGF121 and VEGF165 isoforms; results were calculated as percentage inhibition relative to vehicle treated controls. EC50 values were calculated from the dose concentration response curves.

HT1080 cells = test: Kinetics of S-phase transit by BrdU incorporation in HT1080 cells; assay type: cell-based, human; settings: HT1080, 18-hour treatment
Procedure: Experimental Design. HT 1080 cells are exposed to BrdU (bromodeoxyuridine, a synthetic nucleoside that is an analogue of thymidine and is incorporated into DNA during the S phase of cell division) (FITC BrdU Flow Kit, BD Pharmingen catalog #552598). Cells are grown and treated as described in Section 9.3.1.3 above with the exception that one hour prior to harvesting by trypsinization, BrdU (final concentration 1 μM) is added to each culture for 1 hour. Cells actively replicating DNA during this brief time incorporate the BrdU into the DNA, which can then be quantitated. BrdU content is quantitated with using the FITC BrdU Flow Kit as instructed by the manufacturer. The process includes fixation (paraformaldehyde) and DNA staining with 7-AAD (7-amino-actinomycin D) followed by incubation with a fluoro-tagged anti-BrdU antibody that specifically recognizes BrdU incorporated into DNA. Dual channel FACS analysis permits assessment of both the DNA content of individual cells and the rate of transit across the S-phase, which is assessed based upon BrdU incorporation over the one hour treatment period.

[2] = tested on: bacterial reverse mutation; test: Bacterial reverse mutation study; settings: with and without exogenous metabolic activation
Procedure: Genotoxicity was assessed in a battery of in vitro and in vivo studies that included a bacterial reverse mutation study, a chromosome aberration study in Chinese hamster ovary (CHO) cells, and a micronucleus study in rats by the oral route. The in vitro studies were performed in the presence and absence of an exogenous metabolic activation system.

physiological VEGF-A = test: Phase 1 study in healthy volunteers: plasma and serum physiological VEGF-A concentrations; assay type: in vivo, human; settings: any dose tested
Procedure: The study was performed under the oversight of the French health authorities. The study was not performed under an IND.
Plasma VEGF Concentrations: Plasma and serum VEGF concentrations and concentration changes from baseline were presented descriptively.

## COc1ccc(C2c3[nH]c4ccc(Cl)cc4c3CCN2C(=O)Oc2ccc(Cl)cc2)cc1 (racemic) [Compound #10]
[1]
  EC50 values for cell lines showing VEGF inhibition (in words): low nanomolar range
HT1080 cells
  BrdU incorporation by individual cells during the one-hour period vs DMSO control (in words): incorporated less BrdU
HT1080 cells; increasing doses
  percentage of cells residing in S-phase (in words): net increase
[2]
  genotoxic effects: no evidence of genotoxic effects
Physiological VEGF-A
  plasma or serum physiological VEGF-A concentrations: No significant alterations
